# Data as given in the SangsterLogP compilation.
# Assay: not given
# Settings: not given
row,Structure (SMILES),logP
1,CCc1cnc2cccc(C)n2c1=O,1.58
2,O=c1ccnc2n1CCCC2,0.13
3,CC1CCCc2nccc(=O)n21 (stereo not given),0.37
4,O=c1ccnc2ccccn12,0.3

# Assay: method code SF-AS, from DOI: 10.1016/s0021-9673(01)88398-9
# Settings: pH 5.0
row,Structure (SMILES),logD
1,CCCc1c(C)nc2cccc(C)n2c1=O,2.22
2,Cc1cccc2nccc(=O)n12,0.74
3,Cc1cc(=O)n2c(n1)CCCC2C (stereo not given),0.67
4,Cc1cnc2cccc(C)n2c1=O,1.27
5,CCc1c(C)nc2cccc(C)n2c1=O,1.86
6,CCc1c(C)nc2n(c1=O)C(C)CCC2 (stereo not given),1.43
